Target: T1, human PAH with the R408W mutation (A375 R408W cells) (Homo sapiens, UniProt P00439, R408W)
T1 construct: expressed in transfected cells
T1 sequence (P00439 1-452 R408W): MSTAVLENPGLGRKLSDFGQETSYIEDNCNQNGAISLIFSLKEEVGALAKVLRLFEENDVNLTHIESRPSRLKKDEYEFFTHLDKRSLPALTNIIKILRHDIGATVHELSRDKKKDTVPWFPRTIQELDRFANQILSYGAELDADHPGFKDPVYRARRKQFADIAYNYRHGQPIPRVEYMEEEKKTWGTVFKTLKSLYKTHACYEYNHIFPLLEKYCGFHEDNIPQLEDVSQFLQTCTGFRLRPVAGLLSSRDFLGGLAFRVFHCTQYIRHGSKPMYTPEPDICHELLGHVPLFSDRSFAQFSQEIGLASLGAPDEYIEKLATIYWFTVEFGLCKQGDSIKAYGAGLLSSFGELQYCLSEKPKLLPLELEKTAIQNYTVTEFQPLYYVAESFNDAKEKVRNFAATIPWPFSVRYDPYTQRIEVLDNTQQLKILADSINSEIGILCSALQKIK
Assay: Cell Based Phenylalanine Flux Assay
Conditions: A375 cells expressing R408W PAH; 24 hrs with compound, then 20 μM sepiapterin and 800 μM 13C9,15N-Phenylalanine for 4 hours; 13C-Tyrosine by LC-MS; average where tested multiple times
Method in brief: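 Phenylalanine-to-tyrosine flux is measured in A375 cells carrying stable human R408W PAH. After 24 h compound exposure, 13C9,15N-Phe (800 μM) with sepiapterin (20 μM) is supplied for 4 h and media 13C-Tyr is read by LC-MS; AC50s are binned.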

| Compound | AC50 [µM] |
| --- | --- |
| CC(C)(O)c1nc(C(F)F)c(C(=O)N2CCc3[nH]cnc3C2c2nc3cc(C#N)ccc3o2)o1 (stereo not drawn) | 1 to 5 |
| O=C(c1ccn(-c2ccccn2)n1)N1CCc2[nH]cnc2C1c1nc2ccccc2o1 (stereo not drawn) | ≥ 5 |
| COc1cccc2nc(C3c4nc[nH]c4CCN3C(=O)c3cc(C(C)(C)C)nn3C)oc12 (stereo not drawn) [listing 1 of 2 here] | ≥ 5 |
| COCc1ccc2c(C(=O)N3CCc4[nH]cnc4C3c3nc4ccc(C)cc4o3)cnn2c1 (stereo not drawn) [listing 1 of 2 here] | ≥ 5 |
| O=C(C1CC1(F)F)N1CCc2[nH]cnc2C1c1nc2cc(F)ccc2o1 (stereo not drawn) | ≥ 5 |
| COCCNc1ccc2c(C(=O)N3CCc4[nH]cnc4C3c3nc4cc(F)ccc4o3)cnn2c1 (stereo not drawn) [listing 1 of 2 here] | ≥ 5 |
| O=C(c1cnc(N2CCC(F)CC2)o1)N1CCc2[nH]cnc2C1c1nc2cc(F)ccc2o1 (stereo not drawn) [listing 1 of 2 here] | ≥ 5 |
| O=C(c1cnn2cc(OCCn3cccn3)ccc12)N1CCc2[nH]cnc2C1c1nc2cc(F)ccc2o1 (stereo not drawn) | ≥ 5 |
| O=C(c1cnn2cc(CN3CCOCC3)ccc12)N1CCc2[nH]cnc2C1c1nc2cc(F)ccc2o1 (stereo not drawn) [listing 1 of 2 here] | ≥ 5 |
| O=C(c1nccs1)N1CCc2[nH]cnc2C1c1nc2ccc(Br)cc2o1 (stereo not drawn) [listing 1 of 2 here] | ≥ 5 |
| Cc1cccc2nc(C3c4nc[nH]c4CCN3C(=O)c3ccn(-c4ccccn4)n3)oc12 (stereo not drawn) [listing 1 of 2 here] | ≥ 5 |
| CN(C)CCOc1ccc2c(C(=O)N3CCc4[nH]cnc4C3c3nc4cc(F)ccc4o3)cnn2c1 (stereo not drawn) [listing 1 of 2 here] | ≥ 5 |
| Cc1ccc2nc(C3c4nc[nH]c4CCN3C(=O)Cc3nncs3)oc2c1 (stereo not drawn) | 1 to 5 |
| O=C(c1ccn(CC(F)F)n1)N1CCc2[nH]cnc2C1c1nc2ccccc2o1 (stereo not drawn) | 1 to 5 |
| COc1cccc2nc(C3c4nc[nH]c4CCN3C(=O)c3cc(C(C)(C)C)nn3C)oc12 (stereo not drawn) [listing 2 of 2 here] | 1 to 5 |
| COCc1ccc2c(C(=O)N3CCc4[nH]cnc4C3c3nc4ccc(C)cc4o3)cnn2c1 (stereo not drawn) [listing 2 of 2 here] | 1 to 5 |
| COCCNc1ccc2c(C(=O)N3CCc4[nH]cnc4C3c3nc4cc(F)ccc4o3)cnn2c1 (stereo not drawn) [listing 2 of 2 here] | 1 to 5 |
| O=C1CN(CCc2ccc3c(C(=O)N4CCc5[nH]cnc5C4c4nc5cc(F)ccc5o4)cnn3c2)CCN1 (stereo not drawn) | 1 to 5 |
| O=C(c1cnc(N2CCC(F)CC2)o1)N1CCc2[nH]cnc2C1c1nc2cc(F)ccc2o1 (stereo not drawn) [listing 2 of 2 here] | 1 to 5 |
| O=C(c1cnn2cc(CN3CCOCC3)ccc12)N1CCc2[nH]cnc2C1c1nc2cc(F)ccc2o1 (stereo not drawn) [listing 2 of 2 here] | 1 to 5 |
| O=C(c1nccs1)N1CCc2[nH]cnc2C1c1nc2ccc(Br)cc2o1 (stereo not drawn) [listing 2 of 2 here] | 1 to 5 |
| Cc1cccc2nc(C3c4nc[nH]c4CCN3C(=O)c3ccn(-c4ccccn4)n3)oc12 (stereo not drawn) [listing 2 of 2 here] | 1 to 5 |
| CN(C)CCOc1ccc2c(C(=O)N3CCc4[nH]cnc4C3c3nc4cc(F)ccc4o3)cnn2c1 (stereo not drawn) [listing 2 of 2 here] | 1 to 5 |

| Compound | AC50 [µM] |
| --- | --- |
| CN(C)CCCc1ccc2c(C(=O)N3CCc4[nH]cnc4C3c3nc4cc(F)ccc4o3)cnn2c1 (stereo not drawn) | ≥ 5 |
| Cc1ccc2oc(C3c4nc[nH]c4CCN3C(=O)c3cnn4cc(CN(C)C)ccc34)nc2c1 (stereo not drawn) | 1 to 5 |
| Cc1ncoc1C(=O)N1CC2(CC2)c2[nH]cnc2C1c1nc2cc(F)ccc2o1 (stereo not drawn) [listing 1 of 2 here] | ≥ 5 |
| Cc1ncoc1C(=O)N1CC2(CC2)c2[nH]cnc2C1c1nc2cc(F)ccc2o1 (stereo not drawn) [listing 2 of 2 here] | 1 to 5 |
| CC1CN(C(=O)c2oc(C(C)(C)O)nc2C(F)F)C(c2nc3cc(F)ccc3o2)c2nc[nH]c21 (stereo not drawn) [listing 1 of 4 here] | ≥ 5 |
| CC1CN(C(=O)c2oc(C(C)(C)O)nc2C(F)F)C(c2nc3cc(F)ccc3o2)c2nc[nH]c21 (stereo not drawn) [listing 2 of 4 here] | 1 to 5 |
| CC1CN(C(=O)c2oc(C(C)(C)O)nc2C(F)F)C(c2nc3cc(F)ccc3o2)c2nc[nH]c21 (stereo not drawn) [listing 3 of 4 here] | 1 to 5 |
| CC1CN(C(=O)c2oc(C(C)(C)O)nc2C(F)F)C(c2nc3cc(F)ccc3o2)c2nc[nH]c21 (stereo not drawn) [listing 4 of 4 here] | 1 to 5 |
| Cc1cccc2nc([C@H]3c4nc[nH]c4CCN3C(=O)c3cnn4cc(N5CCC(O)CC5)ccc34)oc12 (single isomer, unassigned) | ≥ 5 |
| O=C(c1cn(-c2ccccn2)nc1Cl)N1CCc2[nH]cnc2[C@@H]1c1nc2cc(F)ccc2o1 (single isomer, unassigned) | ≥ 5 |
| Cc1cccc2nc([C@H]3c4nc[nH]c4CCN3C(=O)c3cnc(C(C)(C)O)o3)oc12 (single isomer, unassigned) | ≥ 5 |
| CN1C2CCC1CN(c1ccc3c(C(=O)N4CCc5[nH]cnc5C4c4nc5cc(F)ccc5o4)cnn3c1)C2 (single isomer, unassigned) [listing 1 of 2 here] | ≥ 5 |
| O=C(c1cnn2cc(CN3CC(F)C3)ccc12)N1CCc2[nH]cnc2[C@@H]1c1nc2cc(F)ccc2o1 (single isomer, unassigned) | ≥ 5 |
| CN(C)Cc1nnc(C(=O)N2CCc3[nH]cnc3[C@@H]2c2nc3cc(F)ccc3o2)o1 (single isomer, unassigned) | ≥ 5 |
| CC(=O)Cn1cc(C(=O)N2CCc3[nH]cnc3[C@H]2c2nc3cc(F)ccc3o2)cn1 (single isomer, unassigned) | ≥ 5 |
| O=C(c1cnn2cc(CN3CCC(F)(F)C3)ccc12)N1CCc2[nH]cnc2[C@H]1c1nc2cc(F)ccc2o1 (single isomer, unassigned) | 1 to 5 |
| O=C([C@H]1CC1(F)F)N1CCc2[nH]cnc2[C@H]1c1nc2cc(F)ccc2o1 (single isomer, unassigned) | 1 to 5 |
| O=C(c1cn[nH]c1)N1CCc2[nH]cnc2[C@H]1c1nc2cc(F)ccc2o1 (single isomer, unassigned) | ≥ 5 |
| O=C(c1cnn2cc(OCCn3cccn3)ccc12)N1CCc2[nH]cnc2[C@H]1c1nc2cc(F)ccc2o1 (single isomer, unassigned) | 1 to 5 |
| CN1C2CCC1CN(c1ccc3c(C(=O)N4CCc5[nH]cnc5C4c4nc5cc(F)ccc5o4)cnn3c1)C2 (single isomer, unassigned) [listing 2 of 2 here] | 1 to 5 |
| O=C(c1cnn2cc(N3CCNCC3)ccc12)N1CCc2[nH]cnc2[C@H]1c1nc2cc(F)ccc2o1 (single isomer, unassigned) | ≥ 5 |
| Cc1nc([C@H](C)O)oc1C(=O)N1CCc2[nH]cnc2C1c1nc2cc(F)ccc2o1 (single isomer, unassigned) | 1 to 5 |
| CC(C)(O)c1cc(C(=O)N2CCc3[nH]cnc3C2c2nc3ccc(F)cc3o2)on1 (single isomer, unassigned) [4R enantiomer of 2-{5-[4-(6-fluoro-1,3-benzoxazol-2-yl)-1H,4] | ≥ 5 |

Results, then the compound that gave them:

| AC50 [µM] | Compound |
| --- | --- |
| ≥ 5 | Cc1ccc2oc(C3c4nc[nH]c4CCN3C(=O)c3nc(C)nn3C)nc2c1 (stereo not drawn) [listing 1 of 2 here] |
| ≥ 5 | CC(C)(O)c1nnc(C(=O)N2CCc3[nH]cnc3C2c2nc3cc(F)ccc3o2)o1 (stereo not drawn) [listing 1 of 2 here] |
| ≥ 5 | Cc1ccc2nc(C3c4nc[nH]c4CCN3C(=O)c3nnc(C(C)(C)O)o3)oc2c1 (stereo not drawn) [listing 1 of 2 here] |
| 1 to 5 | O=C(c1ncc(Cl)s1)N1CCc2[nH]cnc2C1c1nc2cc(F)ccc2o1 (stereo not drawn) |
| ≥ 5 | Cn1cncc1-c1nnc(C(=O)N2CCc3[nH]cnc3C2c2nc3c(F)ccc(F)c3o2)o1 (stereo not drawn) [listing 1 of 2 here] |
| ≥ 5 | Cc1ccc2oc(C3c4nc[nH]c4CCN3C(=O)c3cnco3)nc2c1 (stereo not drawn) [listing 1 of 2 here] |
| ≥ 5 | O=C(c1ccn(-c2ccccn2)n1)N1CCc2[nH]cnc2C1c1nc2cccc(F)c2o1 (stereo not drawn) [listing 1 of 2 here] |
| 1 to 5 | O=C(c1ccn(CC(F)F)n1)N1CCc2[nH]cnc2C1c1nc2c(F)cccc2o1 (stereo not drawn) |
| 1 to 5 | O=C(c1ccn(CC(F)F)n1)N1CCc2[nH]cnc2C1c1nc2cccc(F)c2o1 (stereo not drawn) |
| 1 to 5 | Cc1ccc2oc(C3c4nc[nH]c4CCN3C(=O)c3nc(C)nn3C)nc2c1 (stereo not drawn) [listing 2 of 2 here] |
| 1 to 5 | COc1ccc2oc(C3c4nc[nH]c4CCN3C(=O)c3nc(C)nn3C)nc2c1 (stereo not drawn) |
| 1 to 5 | CC(C)(O)c1nnc(C(=O)N2CCc3[nH]cnc3C2c2nc3c(F)ccc(F)c3o2)o1 (stereo not drawn) |
| 1 to 5 | CC(C)(O)c1nnc(C(=O)N2CCc3[nH]cnc3C2c2nc3cc(F)ccc3o2)o1 (stereo not drawn) [listing 2 of 2 here] |
| 1 to 5 | CC(C)(O)c1cc(C(=O)N2CCc3[nH]cnc3C2c2nc3cc(F)ccc3o2)on1 (stereo not drawn) |
| 1 to 5 | Cc1ccc2nc(C3c4nc[nH]c4CCN3C(=O)c3nnc(C(C)(C)O)o3)oc2c1 (stereo not drawn) [listing 2 of 2 here] |
| 1 to 5 | O=C(c1nnc(-c2cnn(C(F)F)c2)o1)N1CCc2[nH]cnc2C1c1nc2cccc(C(F)(F)F)c2o1 (stereo not drawn) |
| 1 to 5 | Cn1cnc(-c2nnc(C(=O)N3CCc4[nH]cnc4C3c3nc4cccc(C(F)(F)F)c4o3)o2)c1 (stereo not drawn) |
| 1 to 5 | Cn1cncc1-c1nnc(C(=O)N2CCc3[nH]cnc3C2c2nc3cccc(C(F)(F)F)c3o2)o1 (stereo not drawn) |
| 1 to 5 | Cn1cncc1-c1nnc(C(=O)N2CCc3[nH]cnc3C2c2nc3c(F)ccc(F)c3o2)o1 (stereo not drawn) [listing 2 of 2 here] |
| 1 to 5 | Cc1nnc(C(=O)N2CCc3[nH]cnc3C2c2nc3c(F)ccc(F)c3o2)o1 (stereo not drawn) |
| 1 to 5 | O=C(c1nnc(N2CC(F)C2)o1)N1CCc2[nH]cnc2C1c1nc2cc(F)ccc2o1 (stereo not drawn) |
| 1 to 5 | O=C(c1nnc(N2CCC(F)CC2)o1)N1CCc2[nH]cnc2C1c1nc2cc(F)ccc2o1 (stereo not drawn) |
| 1 to 5 | O=C(c1nnc(N2CCOCC2)o1)N1CCc2[nH]cnc2C1c1nc2cc(F)ccc2o1 (stereo not drawn) |
| 1 to 5 | Cc1ccc2oc(C3c4nc[nH]c4CCN3C(=O)c3cnco3)nc2c1 (stereo not drawn) [listing 2 of 2 here] |
| 1 to 5 | O=C(c1ccn(-c2ccccn2)n1)N1CCc2[nH]cnc2C1c1nc2cccc(F)c2o1 (stereo not drawn) [listing 2 of 2 here] |
| 1 to 5 | O=C(c1nnc(NC2CC2)o1)N1CCc2[nH]cnc2C1c1nc2cc(F)ccc2o1 (stereo not drawn) |
| ≥ 5 | O=C(c1nnc(CCN2CC(F)C2)o1)N1CCc2[nH]cnc2C1c1nc2cc(F)ccc2o1 (stereo not drawn) |
| ≥ 5 | O=C(C1CC1)N1CCc2[nH]cnc2[C@@H]1c1nc2cc(F)ccc2o1 (single isomer, unassigned) |
| 1 to 5 | O=C(CCc1cncs1)N1CCc2[nH]cnc2[C@H]1c1nc2c(F)cccc2o1 (single isomer, unassigned) |
